Data: paper PMC11528044 (Nature Communications, 2024)
Like-named read-outs stand apart in the source and are kept apart here. Marks after values point to notes of the source that are not given here.

Columns and labels:
LdCYP5122A1 [1] = target: T1, LdCYP5122A1 (Leishmania donovani, UniProt A0A3S7X0B6)
T1 sequence (A0A3S7X0B6 61-592): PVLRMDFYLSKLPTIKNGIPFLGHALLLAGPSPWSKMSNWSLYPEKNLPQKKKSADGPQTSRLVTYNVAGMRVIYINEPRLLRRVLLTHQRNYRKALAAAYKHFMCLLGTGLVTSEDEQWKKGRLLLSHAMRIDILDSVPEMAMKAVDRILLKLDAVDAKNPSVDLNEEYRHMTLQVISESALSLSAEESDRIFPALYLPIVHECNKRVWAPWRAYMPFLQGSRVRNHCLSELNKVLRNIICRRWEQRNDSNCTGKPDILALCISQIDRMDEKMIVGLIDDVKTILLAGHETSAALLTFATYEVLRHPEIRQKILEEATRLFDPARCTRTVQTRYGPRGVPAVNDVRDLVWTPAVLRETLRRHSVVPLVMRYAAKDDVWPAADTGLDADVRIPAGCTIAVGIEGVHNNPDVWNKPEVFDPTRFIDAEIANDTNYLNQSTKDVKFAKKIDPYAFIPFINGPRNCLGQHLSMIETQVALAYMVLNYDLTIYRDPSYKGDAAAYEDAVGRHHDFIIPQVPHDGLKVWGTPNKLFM

[2] = tested on: intracellular amastigotes; conditions: ref Wang et al. (ref. 45); cited from earlier work
[3] = tested on: L. donovani strain 1S2D promastigotes (Ld1S WT and CYP5122A1 mutants); conditions: 48 hours; for EC50: read-out: EC50, promastigote growth
LdCYP51 [4] = target: T2, LdCYP51 (Leishmania donovani, UniProt A0A3S7WRS7)
T2 sequence (A0A3S7WRS7 32-480): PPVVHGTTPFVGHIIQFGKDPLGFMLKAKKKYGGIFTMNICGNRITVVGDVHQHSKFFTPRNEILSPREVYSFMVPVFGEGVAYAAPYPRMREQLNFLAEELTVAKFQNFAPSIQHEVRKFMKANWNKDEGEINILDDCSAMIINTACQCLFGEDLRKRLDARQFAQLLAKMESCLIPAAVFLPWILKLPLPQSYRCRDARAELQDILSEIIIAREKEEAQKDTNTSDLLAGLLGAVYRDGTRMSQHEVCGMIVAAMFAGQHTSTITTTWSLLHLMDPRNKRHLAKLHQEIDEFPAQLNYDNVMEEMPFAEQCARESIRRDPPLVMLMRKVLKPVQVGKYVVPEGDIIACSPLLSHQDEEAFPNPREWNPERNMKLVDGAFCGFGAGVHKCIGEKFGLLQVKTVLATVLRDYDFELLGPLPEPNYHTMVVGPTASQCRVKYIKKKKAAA

LdCYP51 [5] = target: T2, LdCYP51; assay: biochemical
[6] = tested on: intracellular amastigotes of L. infantum; conditions: cited from earlier work; for EC50: read-out: EC50, elimination of intracellular amastigotes of L. infantum
LdCYP5122A1 [7] = target: T1, LdCYP5122A1; assay: biochemical; conditions: for inhibition at 100 µM: read-out: % inhibition of CYP5122A1 at 100 μM
[8] = tested on: L. donovani LV82 promastigotes; assay: microbe, parasite or virus in culture; conditions: Leishmania donovani, 72 h, read-out: EC50 (L. donovani)
L. donovani CYP5122A1 = target: T3, L. donovani CYP5122A1 (Leishmania donovani, UniProt A0A3S7X0B6); assay: UV-Vis difference binding spectra of ligands with purified recombinant CYP5122A1
T3 sequence (A0A3S7X0B6 61-592): T1 sequence (A0A3S7X0B6 61-592)

[9] = tested on: intracellular L. major and L. amazonensis; conditions: 10 μM; cited from earlier work
L. donovani CYP51 = L. donovani CYP51 (Leishmania donovani, UniProt A0A3S7WRS7); assay: UV-Vis difference binding spectra of ligands with purified recombinant CYP51
Chain of L. donovani CYP51 (A0A3S7WRS7 32-480): as above

[10] = tested on: multiple strains of L. donovani and L. infantum promastigotes; conditions: 1 μg/mL; cited from earlier work
[11] = tested on: L. donovani LV82 promastigote cultures; assay: Microscopic counts of LV82 promastigote cultures; type: cell-based, Leishmania donovani; conditions: LV82 promastigotes, cell counts daily for three days
[12] = tested on: intracellular L. donovani parasites; assay: Intracellular L. donovani in infected peritoneal macrophage assay; type: cell-based, Leishmania donovani; conditions: Supplementary Fig. 12
[13] = tested on: L. donovani strain 1S2D promastigotes (Ld1S WT and CYP5122A1 mutants); assay: microbe, parasite or virus in culture; conditions: Leishmania donovani, 48 h
[14] = tested on: sterol profile of LV82 promastigotes; assay: LC-MS/MS sterol analysis of inhibitor-treated LV82 promastigotes; type: cell-based, Leishmania donovani; conditions: 50 μM voriconazole vs. DMSO, 24 hr

## CC(C)Oc1cc(NC(=N)c2ccccn2)ccc1-c1ccc(-c2ccc(NC(=N)c3ccccn3)cc2OC(C)C)o1 [DB766]
LdCYP5122A1 [1]
  Selectivity for CYP5122A1 over CYP51: > 30 fold
LdCYP5122A1 [1]; read-out: IC50 (LdCYP5122A1), mean ± standard deviation (n = 3)
  IC50: 1000 ± 100 nM
[2]
  IC50 vs. intracellular amastigotes (printed in column EC50 (L. donovani)): 0.036^f μM
[3]; CYP5122A1 overexpressors
  EC50: ~12 nM
[3]; WT and Ld22A1 + /‒
  EC50: 1 to 4 nM
LdCYP51 [4]; 30 μM
  % inhibition of LdCYP51 at 30 μM: <30% inhibition at 30 μM

## Clc1ccc(C(Cn2ccnc2)OCc2ccc(Sc3ccccc3)cc2)c(Cl)c1 (centres unmarked) [Fenticonazole]
LdCYP51 [5]
  IC50: 81 ± 2 nM
[6]
  EC50: 2900 ± 300 nM
LdCYP5122A1 [7]
  IC50: 650 ± 80 nM
LdCYP5122A1 [1]
  SI (selectivity index) = IC50 against LdCYP5122A1/IC50 against LdCYP51: 8.0
[8]
  EC50: 5600 ± 300 nM

## OC(Cn1cncn1)(Cn1cncn1)c1ccc(F)cc1F [Fluconazole]
L. donovani CYP5122A1
  Binding mode with CYP5122A1 (difference binding spectrum): no specific responses
[9]
  Inhibition of intracellular parasites: < 50%
LdCYP5122A1 [7]
  IC50: > 100000 nM
  inhibition at 100 µM: < 20%
L. donovani CYP51
  Binding mode with CYP51 (difference binding spectrum): type II binding
[10]
  Growth compared with control: > 80%

## CCCCCCCCCCCCCCCCOP(=O)([O-])OCC[N+](C)(C)C [Miltefosine]
LdCYP51 [5]
  IC50: 12000 ± 1000 nM
LdCYP5122A1 [7]
  IC50: 43000 ± 1000 nM
LdCYP5122A1 [1]
  SI (selectivity index) = IC50 against LdCYP5122A1/IC50 against LdCYP51: 3.5
[2]
  IC50 vs. intracellular amastigotes (printed in column EC50 (L. donovani)): 2.7^e μM

## NC[C@@H]1O[C@H](O[C@H]2[C@@H](O)[C@H](O[C@@H]3[C@@H](O)[C@H](N)C[C@H](N)[C@H]3O[C@H]3O[C@H](CO)[C@@H](O)[C@H](O)[C@H]3N)O[C@@H]2CO)[C@H](N)[C@@H](O)[C@@H]1O [Paromomycin]
[2]
  IC50 vs. intracellular amastigotes (printed in column EC50 (L. donovani)): >50^e μM

## CC[C@@H]([C@H](C)O)n1ncn(-c2ccc(N3CCN(c4ccc(OC[C@@H]5CO[C@@](Cn6cncn6)(c6ccc(F)cc6F)C5)cc4)CC3)cc2)c1=O [Posaconazole]
[11]
  Leishmanicidal vs. leishmanistatic effect: leishmanistatic effect
L. donovani CYP5122A1
  Binding mode with CYP5122A1 (difference binding spectrum): type II-like binding
[12]
  Effect on intracellular L. donovani parasites: more effective than fluconazole
[13]; read-out: Concentration sufficient to reach EC50
  EC50: 100 nM
[13]; read-out: EC50, promastigote growth
  EC50: ~25000 nM
[3]; Ld1S WT, bi-phasic response
  Concentration needed to inhibit growth further: more than 12 μM
L. donovani CYP51
  Binding mode with CYP51 (difference binding spectrum): type II binding

## Clc1ccc(C(Cn2ccnc2)OCc2ccsc2Cl)c(Cl)c1 (centres unmarked) [Tioconazole]
LdCYP51 [5]
  IC50: 54 ± 8 nM
[6]
  EC50: 4000 ± 200 nM
LdCYP5122A1 [7]
  IC50: 1100 ± 200 nM
LdCYP5122A1 [1]
  SI (selectivity index) = IC50 against LdCYP5122A1/IC50 against LdCYP51: 20
[8]
  EC50: 9500 ± 600 nM

## C[C@@H](c1ncncc1F)[C@](O)(Cn1cncn1)c1ccc(F)cc1F [Voriconazole]
LdCYP51 [5]
  IC50: 85 ± 17 nM
L. donovani CYP5122A1
  Binding mode with CYP5122A1 (difference binding spectrum): no specific responses
[6]
  EC50, elimination of intracellular amastigotes of L. infantum: failed
[14]
  4,14-Dimethylzymosterol level normalized to DMSO-treated parasites: 17 ± 2
  4CH2OH-LS level normalized to DMSO-treated parasites: 0.83 ± 0.09
  5-Dehydroepisterol level normalized to DMSO-treated parasites: 0.078 ± 0.043
  7-Dehydrodesmosterol level normalized to DMSO-treated parasites: 0^d,**
  14-Methylfecosterol level normalized to DMSO-treated parasites: Accumulated^a,***
  14-Methylzymosterol level normalized to DMSO-treated parasites: 8.0 ± 1.0
  Cholesterol (exogenous) level normalized to DMSO-treated parasites: 0.88 ± 0.07
  Ergosta-5,7-dienol level normalized to DMSO-treated parasites: 0.39 ± 0.11
  Ergostatetraenol level normalized to DMSO-treated parasites: 0.086 ± 0.027
  Ergosterol level normalized to DMSO-treated parasites: 0.30 ± 0.08
  FF-MAS level normalized to DMSO-treated parasites: Not detected
  Lanosterol level normalized to DMSO-treated parasites: 1.6 ± 0.2
  T-MAS level normalized to DMSO-treated parasites: Not detected
[14]; not separated from cholesta-7,24-dienol
  Zymosterol level normalized to DMSO-treated parasites: 0.067 ± 0.034
[14]; not separated from episterol and fecosterol
  4-Methylzymosterol level normalized to DMSO-treated parasites: 0.18 ± 0.06
[9]
  Inhibition of intracellular parasites: < 50%
LdCYP5122A1 [7]
  IC50: > 100000 nM
  inhibition at 100 µM: < 28%
LdCYP5122A1 [1]
  SI (selectivity index) = IC50 against LdCYP5122A1/IC50 against LdCYP51: >1176
L. donovani CYP51
  Binding mode with CYP51 (difference binding spectrum): type II binding
LdCYP51 [4]
  Selectivity for CYP51 over CYP5122A1: > 1176 fold
[8]
  EC50: > 100000 nM
